According to paper PMC11475281, “A Novel Liver Cancer-Selective Histone Deacetylase Inhibitor Is Effective against Hepatocellular Carcinoma and Induces Durable Responses with Immunotherapy” (ACS Pharmacology & Translational Science, 2024):
Where two headings read alike, the source gives them in different places.

How the values were obtained:
Hep-G2 cells = assay: Immunoblotting of cleaved Caspase 3 and p21WAF/CIP; format: cell-based, human; details: for Caspase 3 cleavage (cleaved Caspase 3/Pro-caspase 3): IC50 or 2× IC50 for 18 h; for p21WAF/CIP level: higher concentrations, 18 h
Procedure: Figure 3 Effects of STR-V-53 on intracellular markers of HDAC inhibition, antitumor immune response, and apoptosis. (a) STR-V-53 upregulates the levels of acetylated H4 and tubulin in Hep-G2 cells. Hep-G2 cells were treated with DMSO or 0.1% DMSO solution of SAHA (1.25 μM) and STR-V-53 (1.25 μM, 2.5 μM). Cells were treated for 5 h before lysis. Data are from two independent experiments. (b) STR-V-53 upregulates PD-L1 and downregulates PD-1 expressions in Hep-G2 cells. Cells were treated with DMSO or 0.1% DMSO solution of SAHA (5 μM and 10 μM) and STR-V-53 (10 and 20 μM) for 24 h. (c) STR-V-53 and SAHA caused upregulation of the levels of CD54 in the Hep-G2 cell line. Cells were treated with DMSO or 0.1% DMSO solution of SAHA (5 and 10 μM) and STR-V-53 (5, 10, and 20 μM) for 24 h. […] Cells were treated with DMSO or 0.1% DMSO solution of SAHA (5 μM) and STR-V-53 (10 and 20 μM).
HDAC inhibition could cause cell apoptosis through caspase cleavage and p21^WAF/CIP upregulation.[37] To probe if our compounds elicit a similar phenotype, we investigated the effects representative examples on the cellular levels of cleaved Caspase 3 and p21^WAF/CIP through immunoblotting.

HDAC6 = biological target: T1, HDAC6 (Homo sapiens, UniProt Q9UBN7); assay: HDAC isoform inhibition (BPS Bioscience)
T1 sequence (Q9UBN7 1-1215): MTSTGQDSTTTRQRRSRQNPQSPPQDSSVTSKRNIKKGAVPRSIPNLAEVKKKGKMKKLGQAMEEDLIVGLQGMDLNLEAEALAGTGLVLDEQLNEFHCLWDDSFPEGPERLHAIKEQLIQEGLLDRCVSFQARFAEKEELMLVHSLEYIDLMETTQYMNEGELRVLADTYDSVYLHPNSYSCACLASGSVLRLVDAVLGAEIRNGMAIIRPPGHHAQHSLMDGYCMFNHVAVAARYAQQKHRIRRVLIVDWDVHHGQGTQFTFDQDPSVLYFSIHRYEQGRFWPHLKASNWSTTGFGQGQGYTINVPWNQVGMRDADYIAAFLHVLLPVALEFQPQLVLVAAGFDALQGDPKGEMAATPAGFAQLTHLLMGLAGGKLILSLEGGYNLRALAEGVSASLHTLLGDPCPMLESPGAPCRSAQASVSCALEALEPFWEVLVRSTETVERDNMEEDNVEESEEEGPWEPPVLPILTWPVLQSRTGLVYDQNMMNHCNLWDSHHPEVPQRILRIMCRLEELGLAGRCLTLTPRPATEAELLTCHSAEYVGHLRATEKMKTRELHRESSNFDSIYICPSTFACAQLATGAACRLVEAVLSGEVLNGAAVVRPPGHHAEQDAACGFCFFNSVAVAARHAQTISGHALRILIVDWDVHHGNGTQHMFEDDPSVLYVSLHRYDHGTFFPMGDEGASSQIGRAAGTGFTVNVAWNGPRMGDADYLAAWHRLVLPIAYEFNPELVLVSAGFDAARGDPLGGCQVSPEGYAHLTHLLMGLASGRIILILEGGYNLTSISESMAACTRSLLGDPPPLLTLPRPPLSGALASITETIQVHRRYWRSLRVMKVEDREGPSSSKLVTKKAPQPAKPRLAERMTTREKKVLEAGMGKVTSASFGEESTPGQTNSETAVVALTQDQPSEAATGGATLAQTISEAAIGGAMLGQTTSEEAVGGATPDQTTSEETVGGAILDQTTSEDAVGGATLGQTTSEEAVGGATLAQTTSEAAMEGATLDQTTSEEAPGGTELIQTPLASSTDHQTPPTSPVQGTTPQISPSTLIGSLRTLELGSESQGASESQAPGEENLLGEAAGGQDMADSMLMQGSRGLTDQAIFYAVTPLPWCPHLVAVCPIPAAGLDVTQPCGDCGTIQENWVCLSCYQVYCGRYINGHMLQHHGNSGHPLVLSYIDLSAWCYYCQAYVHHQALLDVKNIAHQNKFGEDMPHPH

HDAC2 = HDAC2 (Homo sapiens, UniProt Q92769); assay: HDAC isoform inhibition (BPS Bioscience)
Chain of HDAC2 (Q92769 whole entry, canonical isoform): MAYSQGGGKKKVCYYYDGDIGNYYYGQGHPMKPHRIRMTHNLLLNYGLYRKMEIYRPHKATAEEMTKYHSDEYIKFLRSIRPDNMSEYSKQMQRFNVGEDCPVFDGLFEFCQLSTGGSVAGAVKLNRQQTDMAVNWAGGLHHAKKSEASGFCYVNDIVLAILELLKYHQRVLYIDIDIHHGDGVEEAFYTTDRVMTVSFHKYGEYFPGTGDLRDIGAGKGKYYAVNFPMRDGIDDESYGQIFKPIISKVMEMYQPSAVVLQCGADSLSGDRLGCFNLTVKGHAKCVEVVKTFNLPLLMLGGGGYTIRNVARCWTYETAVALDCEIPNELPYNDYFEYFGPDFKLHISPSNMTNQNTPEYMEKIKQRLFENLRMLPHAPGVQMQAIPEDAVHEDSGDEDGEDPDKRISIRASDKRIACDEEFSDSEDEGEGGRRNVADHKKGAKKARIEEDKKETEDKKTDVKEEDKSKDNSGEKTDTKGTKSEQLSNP

HDAC1 = HDAC1 (Homo sapiens, UniProt Q13547); assay: HDAC isoform inhibition (BPS Bioscience)
Chain of HDAC1 (Q13547 whole entry, canonical isoform): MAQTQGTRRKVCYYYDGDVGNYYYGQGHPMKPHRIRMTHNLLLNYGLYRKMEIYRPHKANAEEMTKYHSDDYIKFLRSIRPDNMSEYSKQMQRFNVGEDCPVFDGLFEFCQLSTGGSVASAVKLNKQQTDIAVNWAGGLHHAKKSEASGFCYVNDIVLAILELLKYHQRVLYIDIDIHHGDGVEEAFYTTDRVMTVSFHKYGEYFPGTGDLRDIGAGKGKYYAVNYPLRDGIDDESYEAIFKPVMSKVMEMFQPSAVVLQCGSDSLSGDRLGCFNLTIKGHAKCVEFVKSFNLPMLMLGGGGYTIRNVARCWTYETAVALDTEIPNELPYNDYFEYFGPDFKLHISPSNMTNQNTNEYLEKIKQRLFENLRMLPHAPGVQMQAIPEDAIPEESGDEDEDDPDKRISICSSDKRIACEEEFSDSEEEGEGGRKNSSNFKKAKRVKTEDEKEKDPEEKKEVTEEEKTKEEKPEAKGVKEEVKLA

[1] = system: A549 (lung adenocarcinoma); assay: MTS cell viability assay, 72 h; format: cell-based
Excerpt: (§1) We then screened STR-V-53 and all the synthesized glycosylated HDACi for their effects on the viability of three cell lines: A549 (lung adenocarcinoma), Hep-G2 (HCC), and VERO (a normal kidney epithelial cell). We used SORA and STR-V-48, a previously disclosed nonglycosylated compound, as controls.[25] […] Additionally, compound STR-V-167, the peracetylated analog of STR-V-53, largely retained the Hep-G2 selectivity of STR-V-53 (Table S2). Subsequently, we evaluated the effects of STR-V-53 on cell proliferation using a panel of human HCC cell lines (Huh-7, SK-Hep-1, and Hep3B) as well as Kupffer cells (liver resident macrophages) by MTS assay. We observed that STR-V-53 is 7- to 16-fold more cytotoxic against these HCC cell lines relative to the Kupffer cells (Figure 1g). […] Based on their weak HDAC and cell proliferation inhibition activities, we de-emphasized further evaluation of the class III compounds.
(§2) 10-017-CV), supplemented with 10% fetal bovine serum (FBS) (Corning, 35-010-CV). Hep-G2 cells were cultured in phenol red-free Minimum Essential Medium (MEM) (Corning, 17-305-CV), supplemented with 10% fetal bovine serum (FBS). SK-Hep-1 in ATCC-formulated EMEM (ATCC® 30–2003™); Huh-7 in DMEM (containing 4 mM L-glutamine and 1 g/L glucose) with […]
(§3) Kupffer Cell Media (Sekisui XenoTech, LLC, Cat. #K8700). Cells were seeded into a 96-well plate (2000 counts/100uL) for 24 h prior to treatment and then treated with various drug concentrations for 72 h. All drugs were dissolved in media with DMSO concentration maintained at 1%. The effect of compounds on cell viability was measured using the MTS assay (CellTiter 96 Aqueous One Solution and CellTiter 96 Non-Radioactive Cell Proliferation Assays, Promega, Madison, WI) as described by the manufacturer. IC50s were determined using Prism GraphPad 8. […]

[2] = system: VERO (a normal kidney epithelial cell); assay: MTS cell viability assay, 72 h; format: cell-based
Excerpt: as §1, §2, §3

[3] = Table S2, read-out: Anti-proliferation IC50 A549
[4] = Table S2, read-out: Anti-proliferation IC50 VERO

With `O=C(CCCCCCC(=O)Nc1ccccc1)NO` [SAHA, vorinostat, reference compound] the “Caspase 3 cleavage (cleaved Caspase 3/Pro-caspase 3)” value (“Caspase 3 cleavage” below) (Hep-G2 cells) was “showed cleavage of Caspase 3”.

`O=C(CCCCCCn1cc(-c2ccc(O[C@@H]3O[C@H](CO)[C@@H](O)[C@H](O)[C@H]3O)cc2)nn1)NO` [STR-I-195] was tested, and the IC50 (HDAC6; read-out: HDAC6 IC50, Table S1) was 2.51 nM, the “Caspase 3 cleavage” value (Hep-G2 cells) was “showed cleavage of Caspase 3” and the p21WAF/CIP level (Hep-G2 cells) was “upregulated significantly”. For the same compound, the IC50 (HDAC2; read-out: HDAC2 IC50, Table S1) was 29.1 nM, the IC50 (HDAC1; read-out: HDAC1 IC50, Table S1) was 14.6 nM and the IC50 [1, 3] was greater than 100 µM. It also gave an IC50 [2, 4] of 65.5 ± 8.3 µM.

`O=C(CCCCCCn1cc(-c2ccc(O[C@H]3O[C@H](CO)[C@@H](O)[C@H](O)[C@H]3O)cc2)nn1)NO` [STR-V-53] was tested, and the IC50 (HDAC6) was 3.43 nM, the “Caspase 3 cleavage” value (Hep-G2 cells) was “significant upregulation of cleave Caspase 3/Pro-caspase 3 ratio” and the p21WAF/CIP level (Hep-G2 cells) was “upregulated significantly”. The IC50 (HDAC2) was 60.1 nM, the IC50 (HDAC1) was 24.3 nM and the IC50 ([1]; Homo sapiens, A549, Figure 1g, read-out: Anti-proliferation effects IC50 (μM) A549) was greater than 100 µM. For the same compound, the IC50 ([2]; Chlorocebus sabaeus, Vero, Figure 1g, read-out: Anti-proliferation effects IC50 (μM) Vero) was greater than 100 µM.

Work on `O=C(CCCCCCn1cc(-c2ccc3cc(O[C@H]4O[C@H](CO)[C@@H](O)[C@H](O)[C@H]4O)ccc3c2)nn1)NO` [STR-V-114] yielded an IC50 (HDAC6; read-out: HDAC6 IC50, Table S1) of 4.5 nM, an IC50 (HDAC2; read-out: HDAC2 IC50, Table S1) of 61.5 nM and an IC50 (HDAC1; read-out: HDAC1 IC50, Table S1) of 20.3 nM. The IC50 [1, 3] was 77.2 ± 4.3 µM and the IC50 [2, 4] was 34.1 ± 3 µM.
